The target of one experiment is T1, TAK1-TAB1 (Homo sapiens, UniProt O43318).
T1 sequence (O43318 with tags, fused parts or gaps limits assumed): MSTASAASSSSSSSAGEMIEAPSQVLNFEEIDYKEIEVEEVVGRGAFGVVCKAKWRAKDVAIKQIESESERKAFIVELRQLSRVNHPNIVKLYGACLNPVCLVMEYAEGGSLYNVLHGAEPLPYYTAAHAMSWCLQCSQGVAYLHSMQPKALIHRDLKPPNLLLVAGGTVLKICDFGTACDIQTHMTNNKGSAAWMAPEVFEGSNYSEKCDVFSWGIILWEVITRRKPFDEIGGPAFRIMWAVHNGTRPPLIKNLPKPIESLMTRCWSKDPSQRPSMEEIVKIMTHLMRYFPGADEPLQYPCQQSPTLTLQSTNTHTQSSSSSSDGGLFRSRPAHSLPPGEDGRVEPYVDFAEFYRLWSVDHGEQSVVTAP
Briefly: TAK1-TAB1 binding inhibitory potency (LanthaScreen competitive binding assay, kinase tracer-236). The settings on record: 10 nM TAK1-TAB1, 100 nM kinase tracer-236; read-out: TAK1-Tab Inhibition IC50. A digest of the protocol: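 Compounds were tested for TAK1-TAB1 binding in a 384-well LanthaScreen competitive FRET assay. TAK1-TAB1 (10 nM) and Eu-anti-his antibody (2 nM) were preincubated with compound for two hours before adding 100 nM Alexa Fluor 647 kinase tracer-236. The buffer was 20 mM HEPES pH 7.5, 10 mM MgCl2, 0.01% BSA, 0.0005% Tween-20 and 2% DMSO. IC50 came from 4-parameter logistic fits of emission ratio over an 11-point series from 20 μM to 0.34 nM.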

For experiment [1], the system named is IL-6 Production in Human Peripheral Blood Mononuclear Cells (PBMC). Briefly: LPS stimulated IL-6 production in PBMC cells. The experiment is classed as cell-based. Particulars: read-out: IL-6 Production Inhibition IC50. Here is the method:
LPS Stimulated IL-6 Production in PBMC Cells:
Lipopolysaccharide (LPS) stimulated IL-6 Production in Human Peripheral Blood Mononuclear Cells (PBMC): The cellular efficacy of compound candidates is determined using peripheral blood mononuclear cells purified from human whole blood, based upon the methods of Burnette et al. (2009) Pharmacology, 84:42-60. PBMC produce a number of cytokines (IL6, IL8, IL1β and TNFα) in response to stimulation with LPS. To induce the production of inflammatory mediators, PBMC are plated at a final concentration of 2×10^5 cells/well in a 96 well flat bottom plate in DMEM medium supplemented with 10% fetal bovine serum, 100 units/ml penicillin and 100 μg/ml streptomycin (Gibco BRL Life Technologies). Cells are treated with or without inhibitors for 1-3 hrs then stimulated with 100 ng/ml LPS (serotype 011:B4, Sigma) for an additional 3 hrs at 37° C. with 5% CO2. The supernatants are removed and stored at −20° C. until they are to be assayed. The levels of inflammatory mediators are determined using commercial MSD cytokine kits (Meso Scale Discovery) as per the manufacturer's instructions. Standard curves are based on 7 steps of 4× serial dilutions, with a wide dynamic range of 10000 pg/ml to 2.4 pg/ml, and a blank. Lower limit of detection (LLOD) is calculated at the commonly used 3× the standard deviation of the blank.

Where only a bound is given, the exact number is not on record here.

A word on the IC50: it is the point on the concentration scale where inhibition reaches its midpoint.

`CC(C)(C)OC(=O)NC1CN(c2cnc3[nH]cc(/C=C/C(N)=O)c3c2)C1` [Example 269, (E)-tert-butyl(1-(3-(3-amino-3-oxoprop-1-en-1-yl)-1H-pyrrolo[2,3-b]pyridin-5-yl)azetidin-3-yl)carbamate]: the half-maximal inhibitory concentration (IC50) (on TAK1-TAB1; in experiment [1]) was at most 1000 nM each time.

In the case of `CC(C)Oc1ccc(-c2cnc3[nH]cc(/C=C/C(N)=O)c3n2)cn1` [Example 284, (E)-3-(2-(6-isopropoxypyridin-3-yl)-5H-pyrrolo[2,3-b]pyrazin-7-yl)acrylamide], the concentration for half-maximal inhibition (IC50) (on TAK1-TAB1; in experiment [1]) was at most 1000 nM in each case.

Take `COc1ccc(-c2cnc3[nH]cc(/C=C/C(N)=O)c3c2)cc1` [Example 12, (E)-3-(5-(4-Methoxyphenyl)-1H-pyrrolo[2,3-b]pyridin-3-yl)acrylamide]: the IC50 (at TAK1-TAB1; in experiment [1]) was at most 1000 nM each time.

Take `CC(C)NC(=O)c1ccc(-c2cnc3[nH]cc(/C=C/C(N)=O)c3c2)nc1` [Example 295, (E)-6-(3-(3-amino-3-oxoprop-1-en-1-yl)-1H-pyrrolo[2,3-b]pyridin-5-yl)-N-isopropyl-nicotinamide]: the figures for the half-maximal inhibitory concentration (IC50) (at TAK1-TAB1; in experiment [1]) were at most 1000 nM and over 1000 nM, respectively.

Take `C[C@H](O)C(=O)N1CCN(c2cnc3[nH]cc(/C=C/C(N)=O)c3c2)CC1` [Example 276, (S,E)-3-(5-(4-(2-hydroxypropanoyl)piperazin-1-yl)-1H-pyrrolo[2,3-b]pyridin-3-yl)acrylamide]: the half-maximal inhibitory concentration (IC50) on TAK1-TAB1 is at most 1000 nM; in experiment [1] it was over 1000 nM.

In the case of `CC(C)(C)C(=O)N1CCN(c2cnc3[nH]cc(/C=C/C(N)=O)c3c2)CC1` [Example 264, (E)-3-(5-(4-pivaloylpiperazin-1-yl)-1H-pyrrolo[2,3-b]pyridin-3-yl)acrylamide], the IC50 (at TAK1-TAB1; in experiment [1]) was at most 1000 nM in each case.

On to `NC(=O)/C=C/c1c[nH]c2ncc(-c3ccc(C(F)(F)F)cc3)cc12` [Example 252, (E)-3-(5-(4-(trifluoromethyl)phenyl)-1H-pyrrolo[2,3-b]pyridin-3-yl)acrylamide], for which the IC50 (on TAK1-TAB1; in experiment [1]) was at most 1000 nM in each case.

Consider `CC(=O)O[C@@H](C)CNC(=O)c1ccc(-c2cnc3[nH]cc(/C=C/C(N)=O)c3c2)cc1` [Example 293, (S,E)-1-(4-(3-(3-amino-3-oxoprop-1-en-1-yl)-1H-pyrrolo[2,3-b]pyridin-5-yl)benzamido) propan-2-yl acetate], for which the IC50 at TAK1-TAB1 was at most 1000 nM; in experiment [1], over 1000 nM.

Turning to `NC(=O)/C=C/c1c[nH]c2ncc(-c3ccc(F)cc3F)nc12` [Example 248, (E)-3-(2-(2,4-difluorophenyl)-5H-pyrrolo[2,3-b]pyrazin-7-yl)acrylamide], the half-inhibitory concentration (IC50) (at TAK1-TAB1; in experiment [1]) was at most 1000 nM in each case.

Turning to `Cn1cc(-c2cnc3[nH]cc(/C=C/C(N)=O)c3n2)cn1` [Example 6, (E)-3-(2-(1-Methyl-1H-pyrazol-4-yl)-5H-pyrrolo[2,3-b]pyrazin-7-yl)acrylamide], the IC50 (on TAK1-TAB1; in experiment [1]) was at most 1000 nM throughout.

As for `COc1cccc(-c2cnc3[nH]cc(/C=C/C(N)=O)c3c2)c1` [Example 11, (E)-3-(5-(3-Methoxyphenyl)-1H-pyrrolo[2,3-b]pyridin-3-yl)acrylamide], the IC50 (on TAK1-TAB1; in experiment [1]) was at most 1000 nM throughout.

Consider `NC(=O)/C=C/c1c[nH]c2ncc(-c3ccc(N4CCCC4)nc3)cc12` [Example 250, (E)-3-(5-(6-(pyrrolidin-1-yl)pyridin-3-yl)-1H-pyrrolo[2,3-b]pyridin-3-yl)acrylamide], for which the IC50 (on TAK1-TAB1; in experiment [1]) was at most 1000 nM throughout.

As to `CN1CCN(c2cc(-c3cnc4[nH]cc(/C=C/C(N)=O)c4c3)ccn2)CC1` [Example 273, (E)-3-(5-(2-(4-methylpiperazin-1-yl)pyridin-4-yl)-1H-pyrrolo[2,3-b]pyridin-3-yl)acrylamide], the IC50 (on TAK1-TAB1; in experiment [1]) was at most 1000 nM each time.

As to `CC(C)N1CCN(C(=O)c2ccc(-c3cnc4[nH]cc(/C=C/C(N)=O)c4c3)cc2)CC1` [Example 268, (E)-3-(5-(4-(4-isopropyl-piperazine-1-carbonyl)phenyl)-1H-pyrrolo[2,3-b]pyridin-3-yl)acrylamide], the half-inhibitory concentration (IC50) (on TAK1-TAB1; in experiment [1]) was at most 1000 nM throughout.

As for `NC(=O)/C=C/c1c[nH]c2ncc(N3CCN(C(=O)c4ccccc4)CC3)cc12` [Example 267, (E)-3-(5-(4-benzoylpiperazin-1-yl)-1H-pyrrolo[2,3-b]pyridin-3-yl)acrylamide], the 50% inhibitory concentration (IC50) was at most 1000 nM at TAK1-TAB1 and over 1000 nM in experiment [1].

Consider `CC(C)(O)Cn1cc(-c2cnc3[nH]cc(/C=C/C(N)=O)c3c2)ccc1=O` [Example 292, (E) -3-(5-(1-(2-hydroxy-2-methylpropyl)-6-oxo-1,6-dihydropyridin-3-yl)-1H-pyrrolo[2,3-b]pyridin-3-yl)acrylamide], for which the IC50 on TAK1-TAB1 was at most 1000 nM; in experiment [1], over 1000 nM.

Turning to `CC(C)Oc1cnc2[nH]cc(/C=C/C(N)=O)c2c1` [Example 8, 3-(5-Isopropoxy-1H-pyrrolo[2,3-b]pyridin-3-yl)-acrylamide], the concentration for half-maximal inhibition (IC50) (on TAK1-TAB1; in experiment [1]) was at most 1000 nM throughout.

For `N#Cc1cccc(-c2cnc3[nH]cc(/C=C/C(N)=O)c3c2)c1` [Example 18, 3-[5-(3-Cyano-phenyl)-1H-pyrrolo[2,3-b]pyridin-3-yl]-acrylamide], the concentration for half-maximal inhibition (IC50) (at TAK1-TAB1; in experiment [1]) was at most 1000 nM each time.

As for `COc1ccc(-c2cnc3[nH]cc(/C=C/C(N)=O)c3c2)cn1` [Example 20, (E)-3-(5-(6-methoxypyridin-3-yl)-1H-pyrrolo[2,3-b]pyridin-3-yl)acrylamide], the half-inhibitory concentration (IC50) (at TAK1-TAB1; in experiment [1]) was at most 1000 nM each time.

For `NC(=O)/C=C/c1c[nH]c2ncc(Cc3ccc(F)cc3F)cc12` [Example 275, (E)-3-(5-(2,4-difluorobenzyl)-1H-pyrrolo[2,3-b]pyridin-3-yl)acrylamide], the IC50 (at TAK1-TAB1; in experiment [1]) was at most 1000 nM each time.

Regarding `NC(=O)/C=C/c1c[nH]c2ncc(-c3cnc4ccccc4c3)nc12` [Example 263, (E)-3-(2-(quinolin-3-yl)-5H-pyrrolo[2,3-b]pyrazin-7-yl)acrylamide], the IC50 (at TAK1-TAB1; in experiment [1]) was at most 1000 nM in each case.

In the case of `NC(=O)/C=C/c1c[nH]c2ncc(N3CCN(C(=O)C4CCCC4)CC3)cc12` [Example 278, (E)-3-(5-(4-(cyclopentane-carbonyl)piperazin-1-yl)-1H-pyrrolo[2,3-b]pyridin-3-yl)acrylamide], the IC50 was at most 1000 nM at TAK1-TAB1 and over 1000 nM in experiment [1].

As to `CC(O)c1cncc(-c2cnc3[nH]cc(/C=C/C(N)=O)c3c2)c1` (centres unmarked) [Example 299, (E)-3-(5-(5-(1-hydroxyethyl)pyridin-3-yl)-1H-pyrrolo[2,3-b]pyridin-3-yl)acrylamide], the half-inhibitory concentration (IC50) is at most 1000 nM on TAK1-TAB1 and over 1000 nM in experiment [1].

With `CC(=O)c1ccc(-c2cnc3[nH]cc(/C=C/C(N)=O)c3c2)cc1` [Example 245, (E)-3-(5-(4-acetylphenyl)-1H-pyrrolo[2,3-b]pyridin-3-yl)acrylamide], the concentration for half-maximal inhibition (IC50) (at TAK1-TAB1; in experiment [1]) was at most 1000 nM each time.

With `N#Cc1ccc(-c2cnc3[nH]cc(/C=C/C(N)=O)c3c2)cn1` [Example 261, (E)-3-(5-(6-cyanopyridin-3-yl)-1H-pyrrolo[2,3-b]pyridin-3-yl)acrylamide], the half-maximal inhibitory concentration (IC50) (at TAK1-TAB1; in experiment [1]) was at most 1000 nM each time.

On to `NC(=O)/C=C/c1c[nH]c2ncc(-c3ccc(C(=O)NC4CC4)cc3)cc12` [Example 270, (E)-4-(3-(3-amino-3-oxoprop-1-en-1-yl)-1H-pyrrolo[2,3-b]pyridin-5-yl)-N-cyclopropyl-benzamide], for which the figures for the IC50 (on TAK1-TAB1; in experiment [1]) were at most 1000 nM and over 1000 nM, respectively.

Regarding `CC(C)(C)C(=O)NC1CN(c2cnc3[nH]cc(/C=C/C(N)=O)c3c2)C1` [Example 282, (E)-3-(5-(3-pivalamidoazetidin-1-yl)-1H-pyrrolo[2,3-b]pyridin-3-yl)acrylamide], the IC50 (on TAK1-TAB1; in experiment [1]) was over 1000 nM in each case.

As for `NC(=O)/C=C/c1c[nH]c2ncc(-c3ccccc3)cc12` [Example 1, 3-(5-Phenyl-1H-pyrrolo[2,3-b]pyridin-3-yl)-acrylamide], the IC50 (at TAK1-TAB1; in experiment [1]) was at most 1000 nM in each case.

(Values after US9499551B2, “Substituted pyrrolo[2,3-b]pyridines for treating cancer or inflammatory diseases” (Confluence Life Sciences, Inc., priority 2014, dated 2016).)
